These results are taken from ChEMBL document CHEMBL4406913, “INCB050465 (Parsaclisib), a Novel Next-Generation Inhibitor of Phosphoinositide 3-Kinase Delta (PI3Kδ)” (ACS Med Chem Lett, 2019).

The target of data set [1] is T1, Phosphatidylinositol 4,5-bisphosphate 3-kinase catalytic subunit delta isoform (Homo sapiens, UniProt O00329).
T1 sequence (O00329 whole entry): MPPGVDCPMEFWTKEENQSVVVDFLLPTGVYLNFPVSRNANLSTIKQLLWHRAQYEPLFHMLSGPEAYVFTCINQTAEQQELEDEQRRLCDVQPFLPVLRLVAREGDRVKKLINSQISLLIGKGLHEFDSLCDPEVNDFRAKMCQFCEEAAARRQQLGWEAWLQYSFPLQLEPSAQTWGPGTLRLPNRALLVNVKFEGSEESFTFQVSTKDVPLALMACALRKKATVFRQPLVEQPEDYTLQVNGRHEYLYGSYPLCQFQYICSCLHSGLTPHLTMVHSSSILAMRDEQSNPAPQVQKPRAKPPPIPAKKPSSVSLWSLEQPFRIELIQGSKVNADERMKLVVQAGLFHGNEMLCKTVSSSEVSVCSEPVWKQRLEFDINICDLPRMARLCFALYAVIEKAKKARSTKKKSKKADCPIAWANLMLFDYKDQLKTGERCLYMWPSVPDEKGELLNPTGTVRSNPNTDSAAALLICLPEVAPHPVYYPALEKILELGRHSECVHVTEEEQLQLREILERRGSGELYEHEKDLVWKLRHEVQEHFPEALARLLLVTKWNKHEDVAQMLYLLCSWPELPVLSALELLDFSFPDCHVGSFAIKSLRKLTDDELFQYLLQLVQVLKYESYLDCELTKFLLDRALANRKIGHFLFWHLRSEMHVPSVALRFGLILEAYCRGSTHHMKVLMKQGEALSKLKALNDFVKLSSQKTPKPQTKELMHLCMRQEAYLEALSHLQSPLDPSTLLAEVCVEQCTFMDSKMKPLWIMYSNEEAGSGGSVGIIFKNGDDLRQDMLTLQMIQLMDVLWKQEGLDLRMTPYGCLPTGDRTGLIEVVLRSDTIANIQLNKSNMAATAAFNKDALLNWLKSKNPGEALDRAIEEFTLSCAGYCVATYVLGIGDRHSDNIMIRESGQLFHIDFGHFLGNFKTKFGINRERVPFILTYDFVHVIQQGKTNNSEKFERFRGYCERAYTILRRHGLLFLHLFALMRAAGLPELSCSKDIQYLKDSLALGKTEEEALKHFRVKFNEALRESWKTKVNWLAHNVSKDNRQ
Briefly: Inhibition of PI3Kdelta in human Ramos cells assessed as reduction in AKT phosphorylation incubated for 2 hrs by Alexa flour 488 based FACS analysis. The format is cell-based.

Data set [2] concerns Pfeiffer. Briefly: Cytotoxicity against human Pfeiffer cells assessed as reduction in protein binding adjusted cell viability incubated for 4 days by [3H]-thymidine incorporation based liquid scintillation counter method. The format is functional. (In general: Incorporation of labelled thymidine or its analogues reports DNA synthesis.)
A short description of data set [3]: Fractional unbound in human plasma. The format is ADME, cell-free.
The target of data set [4] is T1, Phosphatidylinositol 4,5-bisphosphate 3-kinase catalytic subunit delta isoform. Put plainly: Inhibition of PI3Kdelta in human whole blood assessed as reduction in anti-IgE antibody-induced CD63 expression by flow cast kit method. The class given is tissue-based.
Data set [5] in a line: Solubility of the compound at pH 7.4. The class given is physicochemical. To be noted: buffer.
In data set [6] the target is T1, Phosphatidylinositol 4,5-bisphosphate 3-kinase catalytic subunit delta isoform. Briefly: Inhibition of PI3Kdelta (unknown origin) using D-myophosphatidylinositol 4,5-bisphosphate as substrate incubated for 120 mins by [gamma-33P]-ATP based scintillation counting method.
Data set [7] in a line: Volume of distribution at steady state in rat at 4 mg/kg, iv measured for 24 hrs by LC-MS/MS analysis. The format is ADME, organism-based. Conditions: in vivo, read-out: Vdss.
A short description of data set [8]: Terminal half life in rat at 4 mg/kg, iv measured for 24 hrs by LC-MS/MS analysis. The class given is ADME, organism-based. To be noted: in vivo, read-out: beta t1/2 (converted).
Data set [9] is described as follows: Tmax in rat at 4 mg/kg, po measured for 24 hrs by LC-MS/MS analysis. To be noted: in vivo. The class given is ADME, organism-based.
A short description of data set [10]: Clearance in Beagle dog at 2 mg/kg, iv measured for 24 hrs by LC-MS/MS analysis. Conditions: in vivo. The class given is ADME, organism-based, Canis lupus familiaris.
The nature of data set [11]: Oral bioavailability in Beagle dog at 4 mg/kg measured for 24 hrs by LC-MS/MS analysis. To be noted: in vivo. The class given is ADME, organism-based, Canis lupus familiaris.
Data set [12] in a line: Volume of distribution at steady state in cynomolgus monkey at 2 mg/kg, iv measured for 24 hrs by LC-MS/MS analysis. The format is ADME, organism-based, Macaca fascicularis. To be noted: in vivo, read-out: Vdss.
A short description of data set [13]: Tmax in cynomolgus monkey at 4 mg/kg, po measured for 24 hrs by LC-MS/MS analysis. Conditions: in vivo. The class given is ADME, organism-based, Macaca fascicularis.
The nature of data set [14]: Oral bioavailability in cynomolgus monkey at 4 mg/kg measured for 24 hrs by LC-MS/MS analysis. The format is ADME, organism-based, Macaca fascicularis. To be noted: in vivo.
The test system of data set [15] is Pfeiffer. Briefly: In vivo inhibition of PI3Kdelta in human Pfeiffer cells xenografted in SCID mouse assessed as reduction in AKT phosphorylation at Ser473 residue in tumor lysates at 1 mg/kg, po bid for 14 days measured at 4 hrs post last dose by Western blot analysis. The format is functional, organism-based. Conditions: Neoplasm, Lysate. Background: Xenograft models place foreign cells or tissue in a host animal.

For data set [16], the target named is T2, Cytochrome P450 2B6 (Homo sapiens, UniProt P20813).
T2 sequence (P20813 whole entry): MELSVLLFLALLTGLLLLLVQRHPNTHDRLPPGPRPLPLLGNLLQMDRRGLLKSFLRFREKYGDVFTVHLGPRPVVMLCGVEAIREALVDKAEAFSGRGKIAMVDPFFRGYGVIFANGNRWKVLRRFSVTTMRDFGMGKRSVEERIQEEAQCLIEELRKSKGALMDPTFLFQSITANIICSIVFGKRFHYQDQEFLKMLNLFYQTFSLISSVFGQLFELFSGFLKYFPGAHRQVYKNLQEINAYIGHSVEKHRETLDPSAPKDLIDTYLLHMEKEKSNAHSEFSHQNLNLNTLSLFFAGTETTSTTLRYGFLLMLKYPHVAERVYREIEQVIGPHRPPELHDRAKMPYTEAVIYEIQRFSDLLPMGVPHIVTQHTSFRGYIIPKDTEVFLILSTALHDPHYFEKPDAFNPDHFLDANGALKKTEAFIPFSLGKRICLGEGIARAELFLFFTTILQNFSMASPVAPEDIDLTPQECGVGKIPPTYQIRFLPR
Put plainly: Inhibition of CYP2B6 in human liver microsomes at 0.1 to 25 uM using bupropion as substrate by LC/MS analysis. The class given is ADME. Background: Microsomes from liver hold many membrane-bound enzymes, among them those of drug oxidation.

Data set [17] addresses Cytochrome P450 2C9 (Homo sapiens, UniProt P11712). Briefly: Inhibition of CYP2C9 in human liver microsomes at 0.1 to 25 uM using diclofenac as substrate by LC/MS analysis. The class given is ADME.
Data set [18] deals with T3, Cytochrome P450 3A4 (Homo sapiens, UniProt P08684). Put plainly: Inhibition of CYP3A4 in human liver microsomes at 0.1 to 25 uM using midazolam as substrate by LC/MS analysis. The class given is ADME.
T3 sequence (P08684 whole entry): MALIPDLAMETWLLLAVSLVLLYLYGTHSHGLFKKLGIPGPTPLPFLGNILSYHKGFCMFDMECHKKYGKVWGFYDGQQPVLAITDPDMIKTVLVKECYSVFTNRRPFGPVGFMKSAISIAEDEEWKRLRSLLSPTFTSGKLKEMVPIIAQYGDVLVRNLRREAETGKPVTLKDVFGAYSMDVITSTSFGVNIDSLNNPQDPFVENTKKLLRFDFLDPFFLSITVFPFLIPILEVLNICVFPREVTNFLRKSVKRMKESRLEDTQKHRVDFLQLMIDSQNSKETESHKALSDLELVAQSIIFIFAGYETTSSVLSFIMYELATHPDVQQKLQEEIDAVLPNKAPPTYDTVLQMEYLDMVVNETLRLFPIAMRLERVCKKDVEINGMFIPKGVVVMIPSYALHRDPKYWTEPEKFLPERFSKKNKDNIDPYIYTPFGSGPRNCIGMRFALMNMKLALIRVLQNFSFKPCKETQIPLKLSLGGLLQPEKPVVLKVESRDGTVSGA
In data set [19] the target is T3, Cytochrome P450 3A4. Put plainly: Inhibition of CYP3A4 in human liver microsomes at 0.1 to 25 uM using testosterone as substrate by LC/MS analysis. The format is ADME.
In data set [20] the target is T1, Phosphatidylinositol 4,5-bisphosphate 3-kinase catalytic subunit delta isoform.
Description: (§1) Inhibition of PI3Kdelta (unknown origin) using D-myophosphatidylinositol 4,5-bisphosphate as substrate incubated for 120 mins by [gamma-33P]ATP based SPA assay
Data set [21] concerns the target T4, Phosphatidylinositol 4,5-bisphosphate 3-kinase catalytic subunit delta isoform (Homo sapiens) (UniProt O00329).
T4 sequence (whole entry): T1 sequence (O00329 whole entry)
Description: as §1

Structures are written as SMILES. Values after ≈ are worked out from the molar mass of the structure shown. Active and inactive are the calls of the source. No cut-off for these calls is given here.

Cytochrome P450 2C9, sequence (P11712 whole entry): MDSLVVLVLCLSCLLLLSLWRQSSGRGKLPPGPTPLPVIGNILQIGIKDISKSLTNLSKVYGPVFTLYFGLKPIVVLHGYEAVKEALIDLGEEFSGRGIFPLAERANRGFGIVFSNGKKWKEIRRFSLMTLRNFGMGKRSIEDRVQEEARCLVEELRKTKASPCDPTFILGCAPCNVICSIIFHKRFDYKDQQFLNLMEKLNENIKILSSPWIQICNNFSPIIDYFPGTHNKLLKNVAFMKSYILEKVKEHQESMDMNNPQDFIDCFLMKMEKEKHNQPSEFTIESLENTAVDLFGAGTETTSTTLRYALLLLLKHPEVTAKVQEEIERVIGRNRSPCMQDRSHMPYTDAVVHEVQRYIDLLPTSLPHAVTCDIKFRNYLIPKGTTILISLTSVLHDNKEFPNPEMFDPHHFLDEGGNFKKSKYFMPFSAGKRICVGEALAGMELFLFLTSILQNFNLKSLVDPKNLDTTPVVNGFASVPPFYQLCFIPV

`CCOc1c([C@H](C)n2nc(C)c3c(N)ncnc32)cc(Cl)c(F)c1[C@@H]1CNC(=O)C1` [PARSACLISIB]: the IC50 in [1] was 1.1 nM; in data set [2] it was 4.2 nM; in [4], 2 nM; in data set [6], 1.1 nM; in [20] it was less than 1 nM. The same compound came in with a fraction unbound in data set [3] of 0.058. In data set [5], this compound showed a solubility of 210 µg/mL (≈ 485 µM). Also, the Vd came out at 1.54 L/kg in [7] and 0.72 L/kg in data set [12]. In data set [8], the half-life was 4 h. Further, the time of peak concentration (Tmax) in [9] is 0.3 h; in data set [13] it was 2.5 h. Besides, in data set [10], the CL was determined as 2%. Also, the bioavailability in data set [11] was 100%; in data set [14], 79%. Moreover, the inhibition entry in data set [15] was “Active”. The “inhibition (INH)” value in data set [16], in data set [17], in data set [18] and in data set [19] was “Not Active” each time. Further, the inhibition result in data set [21] is “inactive”.

The term IC50 denotes the concentration that inhibits the measured activity by half. In general, fraction unbound refers to free concentration divided by total concentration. Broadly, the solubility is the concentration that dissolves in the medium under given conditions. As usually defined, the Tmax is the time from dosing to the highest level. A word on the bioavailability: it is dose-corrected exposure relative to a reference, in per cent.
